Source: patent US9187459B2, “Quinazoline-7-ether compounds and methods of use” (NewGen Therapeutics, Inc., priority 2011, dated 2015)
pIC50: −log10 of the molar value.

Assays:
ErbB2 (HER2) = ErbB2 (HER2) (Homo sapiens (Human), UniProt P04626); assay: Kinase inhibition assay (TR-FRET, LanthaScreen), ErbB2 (HER2); assay type: biochemical; conditions: ATP 1 mM
Protocol: 1) The compound is dissolved in DMSO to prepare a 10 mM solution, and was diluted to 100 micoM with water. […] Kinase activity was determined with time-resolved Fret (TR-FRET) assay (LanthaScreen® kinase activity assay, from InVitrogen).
2) The assay is performed in a Black 384-well plate (from Corning). The kinase and the compound was incubated for […] at room temperature. ATP (1 mM) and fluorescein-poly GT were added, and the reaction was incubated for […]. Detection agent SA-XL665 (from Cisbio Assay) and TK Ab-Cryptate detection antibody (from InVitrogen) were added to stop the reaction.
3) The 384-well plate was sealed and incubated for 1 hour. The fluorescence was then measured at […] (Cryptate) and 665 nM (XL655) wavelength.
4) Each concentration of compound was done in triplicate, and vehicle (without compound) and a positive control were used.
Data process: the ratio of fluorescence is calculated (value of fluorescence 665 nM over […]). The results are calculated from: signal=compound fluorescence ratio−vehicle ratio, and the IC50 was calculated based on inhibition curve.

[1] = system: Human breast cancer BT474 cells; assay: Cell proliferation inhibition assay for BT474 (CCK-8); assay type: cell-based; conditions: BT-474, 72 h, text calls it EC50
Protocol: 1) Human breast cancer BT474 cells were plated 10000 cells/well in a 96-well clear tissue culture plate. The cells were incubated for 24 h at 37° C. to allow adherence.
2) A serials of concentrations of each compound (ranging from 30 uM to 0.16 nM, 5-fold dilution) in 96-well plate, and incubated for 72 h. Each concentration was tested in triplicate. During the cell proliferation assay, BT474 cells were cultured in the complete cell culture solution (low-glucose DMEM containing 5% FBS, 50 ug/ml gentamicin).
3) The culture medium was removed via aspiration, and the cell viability was detected by CCK-8 cell proliferation kit.
4) The EC50 was calculated based on the proliferation curve.

NCI-N87 xenograft = assay: In vivo efficacy in NCI-N87 xenograft mouse model
Protocol: NCI-N87 cell line was purchased from ATCC (American Type Culture Collection) and was cultured in RPMI1640+10% FBS+1% P/S antibiotics.
Male Balb/c nude mice, 6-8 week, 18±2 g (supplier: Shanghai SLAC Laboratory Animal Co. Ltd.) were used for the experiment. The purchased mice were adapted to the environment for 7 days before use, and were housed at 22-25° C. with humidity 40-70%, and light cycle with fluorescent light for 12-hour light (8:00-20:00) 12-hour dark. The mice have free access to food and water.
The cancer cells (NCI-N87) were implanted subcutaneous into the nude mice (right flank) with 5.0×10^6 cells in 0.1 ml PBS (50 mice). When the tumor size reaches a volume of 200 (150-200) mm^3, the tumor-bearing nude mice were randomly assigned into groups (10 mice/group), one group was served as vehicle, one group was administrated with Lapatinib ditosylate monoydrate (80 mg/kg, free base of Lapatinib, not salt, p.o. bid). The other two groups were administrated with NT112 (15 and 30 mg/kg, p.o. q.d, respectively). The administration period lasted for 4 weeks.
The mice were monitored twice daily for appearance and behavior, and for signs of morbidity and/or mortality. The tumor volume was measured twice a week, and the body weight was measured immediately before measuring the tumor volume throughout the whole study.
At end of the experiment (compound administration for four weeks), all the tumor-bearing mice were sacrificed by cervical dislocation under deep anesthesia. The tumor mass was resected, and weighed.
Tumor sizes were measured twice weekly in two dimensions using a caliper, and the volume was expressed in mm^3 using the formula: V=½×a×b^2 where a and b are the long and short diameters of the tumor, respectively. The tumor mass was weighed at the end of the experiment after harvested. V=½×a×b^2 (a, b is maximum and minimum diameters respectively). RTV(Relative Tumor Volume)=Vt/Vo • Vo is the tumor volume when the test article is initial administrated • Vt is the tumor volume of every measurement day after test article administration T/C(%)=TRTV/CRTV×100% • TRTV: RTV of test article-treatment group; CRTV: RTV of control group Inhibition rate (%)=(average tumor volume of control group−average cancer volume of test article treatment group)/average tumor volume of control group×100%

[2] = Pharmacokinetics studies in mice; assay type: in vivo, CD-1 mice; conditions: for bioavailability: CD-1, plasma, mouse; for AUC(0-inf) / AUC(0-t) / Cmax / half-life / MRT: CD-1, mouse plasma
Protocol: (§1) The test article each was dissolved in 10% DMSO and 90% of (40% HP-β-CD in deionized water) to yield concentration at 0.4 mg/mL for intravenous administration, and 1 mg/mL for oral administration.
(§2) Method development and plasma samples analysis were performed by Analytical Sciences Division of the Testing Facility by means of LC-MS/MS. The analytical results were confirmed using quality control samples for intra-assay variation (within day variation). The accuracy of >66% of the quality control samples was between 80-120% of the known value(s).
Each group is consisted 30 CD-1 mice (supplied by Sino-British SIPPR/BK Lab. Animal Ltd., Co, Shanghai), 5-8 week old, 20-28 g body weight. The test articles were administered by a single bolus intravenous injection or via oral gavage.
Any animals in poor health were identified for further monitoring or possible euthanasia.
Blood samples (at least 300 μL/sample) were collected via cardiac puncture after euthanasia by carbon dioxide inhalation at appropriate time points for determination of the plasma concentrations of the test article. Samples were placed in tubes containing K3-EDTA and stored on ice until centrifuged.
Three mice in each group were used for blood collection at each of the 10 time points (Groups 1-10): Pre-dose and post-dose at 5 min, 15 min, 30 min, 1 h, 2 h, 4 h, 6 h, 8 h and 24 h.
The PK blood samples were centrifuged at approximately 8000 rpm for 6 minutes at 2-8° C. and the resulting plasma were separated and stored frozen at approximately −80° C. (following separation, the plasma may be initially placed on ice prior to being stored in the −80° C. freezer). All the plasma samples were labeled with detailed information such as study number, animal number, matrix, time points of collection and date of collection.
Standard set of parameters including Area Under the Curve (AUC(0-t) and AUC(0-∞)), elimination half-live (T1/2), maximum plasma concentration (Cmax), time to reach maximum plasma concentration (Tmax), clearance (CL), and volume of distribution (Vz) were calculated using noncompartmental analysis modules in FDA certified pharmacokinetic program WinNonlin Professional v5.2 (Pharsight, USA) by the Study Director. Furthermore, the Bioavailability was estimated using the following formula:
• AUC(0-t) Area under the curve from the time of dosing to the last measurable concentration • AUC(0-∞) Area under the curve from the time of dosing extrapolated to infinity, based on the last observed concentration • CL Total body clearance, CL=Dose/AUC • Cmax Maximum observed concentration, occurring at Tmax • F Bioavailability • MRT(0-∞) Mean residence time from the time of dosing to infinity • Tmax Time of maximum observed concentration • T1/2 Terminal half-life=ln(2)λz • Vz Volume of distribution based on the terminal phase

[3] = Pharmacokinetics studies in rats; assay type: in vivo, Sprauge Dawley rats; conditions: for bioavailability / AUC(0-inf) / AUC(0-t) / Cmax / clearance / half-life / Vd: male, Sprague-Dawley; for bioavailability: plasma, rat; for AUC(0-inf) / AUC(0-t) / Cmax / clearance / half-life / Vd / CL / Vz: rat plasma; for Vd: read-out: Vz
Protocol: as §1, §2
Each group consisted 3 male Sprauge Dawley rats (7-8 week old, 200-300 g body weight). The test articles were administered by a single bolus intravenous injection via the lateral tail vein or via oral gavage.
Blood samples (approximately 300 μl) were collected via retro-orbital puncture after anaesthesia using mixed gas (CO2:O2=7:3) into tubes containing EDTA-K3 anticoagulant at appropriate time points. 10 time points (Groups 1-2): Pre-dose and post-dose at 5 min, 15 min, 30 min, 1 h, 2 h, 4 h, 6 h, 8 h and 24 h.
The PK blood samples were processed and analyzed using the same methods as in Example 10.

Sequence of ErbB2 (HER2) (P04626 23-1255): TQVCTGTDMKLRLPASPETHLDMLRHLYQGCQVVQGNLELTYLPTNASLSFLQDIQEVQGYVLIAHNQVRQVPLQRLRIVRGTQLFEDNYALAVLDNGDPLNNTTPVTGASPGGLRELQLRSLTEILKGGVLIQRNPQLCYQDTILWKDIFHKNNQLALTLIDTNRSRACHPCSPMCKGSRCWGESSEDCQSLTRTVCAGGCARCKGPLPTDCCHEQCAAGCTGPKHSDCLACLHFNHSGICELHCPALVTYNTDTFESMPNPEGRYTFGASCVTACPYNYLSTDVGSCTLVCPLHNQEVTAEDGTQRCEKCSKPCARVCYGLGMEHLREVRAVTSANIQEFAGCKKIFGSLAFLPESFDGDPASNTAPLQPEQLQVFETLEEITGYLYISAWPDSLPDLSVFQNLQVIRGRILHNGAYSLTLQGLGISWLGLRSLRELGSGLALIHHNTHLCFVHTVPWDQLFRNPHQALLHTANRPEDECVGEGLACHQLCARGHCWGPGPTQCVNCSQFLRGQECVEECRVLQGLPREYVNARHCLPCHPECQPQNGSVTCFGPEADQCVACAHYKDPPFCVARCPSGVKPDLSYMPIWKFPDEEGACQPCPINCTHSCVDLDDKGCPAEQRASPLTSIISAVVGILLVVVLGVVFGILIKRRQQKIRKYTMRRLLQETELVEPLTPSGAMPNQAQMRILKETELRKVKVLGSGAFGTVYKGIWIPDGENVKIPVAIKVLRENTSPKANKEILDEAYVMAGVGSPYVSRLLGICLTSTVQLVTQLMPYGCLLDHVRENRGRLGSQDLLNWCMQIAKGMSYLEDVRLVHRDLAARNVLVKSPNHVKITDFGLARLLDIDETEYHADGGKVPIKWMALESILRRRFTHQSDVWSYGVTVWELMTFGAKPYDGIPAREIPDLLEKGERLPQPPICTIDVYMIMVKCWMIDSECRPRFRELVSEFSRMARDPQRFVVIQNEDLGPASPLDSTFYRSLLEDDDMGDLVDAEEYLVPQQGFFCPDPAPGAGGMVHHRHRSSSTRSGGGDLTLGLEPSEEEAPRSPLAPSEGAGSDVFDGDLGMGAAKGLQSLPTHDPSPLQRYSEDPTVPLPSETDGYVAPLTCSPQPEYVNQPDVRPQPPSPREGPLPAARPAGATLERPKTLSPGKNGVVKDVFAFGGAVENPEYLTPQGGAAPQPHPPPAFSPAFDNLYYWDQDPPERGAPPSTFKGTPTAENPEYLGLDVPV

CO[C@@H]1CO[C@@H]2[C@H]1OC[C@@H]2Oc1cc2ncnc(Nc3ccc(F)c(Cl)c3)c2cc1NC(=O)/C=C/CN(C)C [Example 1, (E)-N-(7-((3R,3aS,6S,6aS)-hexahydro-3-methoxyfuro[3,2-b]furan-6-yloxy)-4-(3-chloro-4-fluorophenylamino)quinazolin-6-yl)-4-(dimethylamino)but-2-enamide]
pIC50 (ErbB2 (HER2)): 7.60 | pIC50 [1]: 7.44

CN(C)C/C=C/C(=O)Nc1cc2c(Nc3ccc(F)c(Cl)c3)ncnc2cc1OCC1C2COCC21 (stereo not drawn) [Example 2, (E)-N-(7-((3-oxa-bicyclo[3.1.0]hexan-6-yl)methoxy)-4-(3-chloro-4-fluorophenylamino)quinazolin-6-yl)-4-(dimethylamino)but-2-enamide]
pIC50 (ErbB2 (HER2)): 8.22 | pIC50 [1]: 7.72

CN(C)C/C=C/C(=O)Nc1cc2c(Nc3ccc(F)c(Cl)c3)ncnc2cc1OC[C@]12COC[C@H]1C2 [Example 3, (E)-N-(7-(((1S,5S)-3-oxa-bicyclo[3.1.0]hexan-1-yl)methoxy)-4-(3-chloro-4-fluorophenylamino)quinazolin-6-yl)-4-(dimethylamino)but-2-enamide]
pIC50 (ErbB2 (HER2)): 7.64 | pIC50 [1]: 7.50

CN(C)C/C=C/C(=O)Nc1cc2c(Nc3ccc(F)c(Cl)c3)ncnc2cc1OC[C@@]12COC[C@@H]1C2 [Example 4, (E)-N-(7-(((1R,5R)-3-oxa-bicyclo[3.1.0]hexan-1-yl)methoxy)-4-(3-chloro-4-fluorophenylamino)quinazolin-6-yl)-4-(dimethylamino)but-2-enamide]
pIC50 (ErbB2 (HER2)): 7.66 | pIC50 [1]: 7.59

CN(C)C/C=C/C(=O)Nc1cc2c(Nc3ccc(F)c(Cl)c3)ncnc2cc1OCC12COCC1C2 (stereo not drawn) [Example 5, (E)-N-(7-((3-oxa-bicyclo[3.1.0]hexan-1-yl)methoxy)-4-(3-chloro-4-fluorophenylamino)quinazolin-6-yl)-4-(dimethylamino)but-2-enamide]
pIC50 (ErbB2 (HER2)): 7.04 | pIC50 [1]: 6.80

CS(=O)(=O)CCNCc1ccc(-c2ccc3ncnc(Nc4ccc(OCc5cccc(F)c5)c(Cl)c4)c3c2)o1 [Lapatinib, reference compound]
RTV T/C (NCI-N87 xenograft; day 7, 80 mg/kg p.o. bid): 31% | tumor growth inhibition rate (NCI-N87 xenograft; day 7, 80 mg/kg p.o. bid): 69% | tumor inhibition rate (NCI-N87 xenograft; day 28 (last day of the study), 80 mg/kg p.o. bid): 92.9%

CN(C)C/C=C/C(=O)Nc1cc2c(Nc3ccc(F)c(Cl)c3)ncnc2cc1OC[C@H]1[C@@H]2COC[C@@H]21 [NT112]
side effect (NCI-N87 xenograft; 15 mg/kg po qd, 4 weeks): without predefined side effect | body weight change (NCI-N87 xenograft; 30 mg/kg p.o. qd, 7 days/week, onset day 3, maximal day 11, dosing stopped, recovered by day 28): led to body weight loss | RTV T/C (NCI-N87 xenograft; day 7, 15 mg/kg po qd): < 30% | tumor growth inhibition (NCI-N87 xenograft; day 7, 15 mg/kg po qd): > 70% | RTV T/C (NCI-N87 xenograft; day 7, 30 mg/kg po qd): < 30% | tumor growth inhibition (NCI-N87 xenograft; day 7, 30 mg/kg po qd): > 70% | bioavailability ([2]; IV 1 mg/Kg (reference)): 100% | bioavailability ([2]; PO 5 mg/Kg): 49.7% | AUC(0-inf) ([2]; IV 1 mg/Kg): 592 ng·h/mL | AUC(0-t) ([2]; IV 1 mg/Kg): 575 ng·h/mL | Cmax ([2]; IV 1 mg/Kg): 236 ng/mL | half-life ([2]; IV 1 mg/Kg): 4.44 h | AUC(0-inf) ([2]; PO 5 mg/Kg): 1470 ng·h/mL | AUC(0-t) ([2]; PO 5 mg/Kg): 1420 ng·h/mL | Cmax ([2]; PO 5 mg/Kg): 272 ng/mL | half-life ([2]; PO 5 mg/Kg): 11.1 h | bioavailability ([3]; IV 1 mg/Kg (reference)): 100% | bioavailability ([3]; po, 5 mg/kg): 68% | AUC(0-inf) ([3]; IV 1 mg/Kg): 248 ng·h/mL | AUC(0-t) ([3]; IV 1 mg/Kg): 220 ng·h/mL | Cmax ([3]; IV 1 mg/Kg): 59.3 ng/mL | clearance ([3]; IV 1 mg/Kg): 67.2 mL/min/kg | half-life ([3]; IV 1 mg/Kg): 6.05 h | Vd ([3]; IV 1 mg/Kg): 10.6 L/kg | AUC(0-inf) ([3]; PO 5 mg/Kg): 843 ng·h/mL | AUC(0-t) ([3]; PO 5 mg/Kg): 434 ng·h/mL | Cmax ([3]; PO 5 mg/Kg): 74.9 ng/mL | half-life ([3]; PO 5 mg/Kg): 20 h | exposure and oral bioavailability with oral administration, compared to afatinib ([3]; oral administration): higher exposure and better oral bioavailability | CL ([3]; PO 5 mg/Kg): 98.8 mL/min/kg | Vz ([3]; PO 5 mg/Kg): 51.55 L/kg

CN(C)C/C=C/C(=O)Nc1cc2c(Nc3ccc(F)c(Cl)c3)ncnc2cc1O[C@H]1CCOC1 [afatinib, reference compound]
bioavailability ([2]; IV 1 mg/Kg (reference)): 100% | bioavailability ([2]; PO 5 mg/Kg): 62% | AUC(0-t) ([2]; IV 1 mg/Kg): 54 ng·h/mL | Cmax ([2]; IV 1 mg/Kg): 109 ng/mL | MRT ([2]; IV 1 mg/Kg): 1.6 h | AUC(0-t) ([2]; PO 5 mg/Kg): 167 ng·h/mL | Cmax ([2]; PO 5 mg/Kg): 17.6 ng/mL | MRT ([2]; PO 5 mg/Kg): 9.3 h | bioavailability ([3]; IV 1 mg/Kg (reference)): 100% | bioavailability ([3]; po, 5 mg/kg): 44.7% | AUC(0-inf) ([3]; IV 1 mg/Kg): 147 ng·h/mL | AUC(0-t) ([3]; IV 1 mg/Kg): 137 ng·h/mL | Cmax ([3]; IV 1 mg/Kg): 55.6 ng/mL | clearance ([3]; IV 1 mg/Kg): 114 mL/min/kg | half-life ([3]; IV 1 mg/Kg): 5.12 h | Vd ([3]; IV 1 mg/Kg): 15.2 L/kg | AUC(0-inf) ([3]; PO 5 mg/Kg): 328 ng·h/mL | AUC(0-t) ([3]; PO 5 mg/Kg): 215 ng·h/mL | Cmax ([3]; PO 5 mg/Kg): 49.2 ng/mL | half-life ([3]; PO 5 mg/Kg): 11 h | CL ([3]; PO 5 mg/Kg): 254.3 mL/min/kg | Vz ([3]; PO 5 mg/Kg): 73.02 L/kg
